pEC50: −log10 of the molar value. Read-outs that look alike come from different tables or passages of the source. Starred links: 1 amine or outer side, 2 acyl side, 3 side chain; linkers in the order of their positions; H or OH if unused. Non-standard residues stand in square brackets, D forms with d. Residues, ends and D or L forms follow the SMILES beside them. Groups on a side chain read outwards from the residue. *: point of attachment. C20 diacid = O=C(O)CCCCCCCCCCCCCCCCCCC(=O)*; C18 diacid = O=C(O)CCCCCCCCCCCCCCCCC(=O)*; γGlu = O=C(O)[C@H](CCC(=O)[*:2])N[*:1]; εLys = N[C@@H](CCCCN[*:1])C(=O)[*:2]; Aib = CC(C)(N)C(=O)O
Columns and labels:
[1] = target: human GLP-1 receptor (Homo sapiens, UniProt P43220); test: In vitro functional potency, CRE luciferase reporter, whole BHK cells (hGLP-1R); assay type: cell-based; parameters: expressed in transfected cells; host or cells: BHK (parent line BHKTS13), clone BHK CRE luc2P hGLP-1R; conditions: BHK CRE luc2P hGLP-1R cells
Experimental: (§1) The in vitro functional potency is the measure of target receptor activation in a whole cell assay.
(§2) In vitro functional potency was determined by measuring the response of the target receptor in a reporter gene assay in individual cell lines. […] When the respective receptor is activated, it results in the production of cAMP, which in turn results in expression of the luciferase protein. When assay incubation is completed, luciferase substrate (luciferin) is added resulting in the enzymatic conversion of luciferin to oxyluciferin and producing bioluminescence. The luminescence is measured as the readout for the assay.
(§3) The cells lines used in these assays were BHK cells with BHKTS13 as a parent cell line. The cell lines were derived from a clone containing the CRE luciferase element and were established by further transfection with the respective human receptor to obtain the relevant cell line: BHK CRE luc2P hGLP-1R or BHK CRE luc2P hGIPR. The cells were cultured at 37° C. with 5% CO2 in Cell Culture Medium. They were aliquoted and stored in liquid nitrogen. The cells were kept in continuous culture and were seeded out the day before each assay.
(§4) GLP-1R Cell Culture Medium consisted of DMEM medium with 10% FBS, 500 µg/mL G418, and 300 µg/mL hygromycin. GIPR Cell Culture Medium consisted of DMEM medium with 10% FBS, 400 µg/mL G418, and 300 µg/mL hygromycin. Assay Buffer consisted of DMEM w/o phenol red, 10 mM Hepes, 1× Glutamax. 1% ovalbumin, and 0.1% Pluronic F-68 with the addition of HSA at twice the final assay concentration.
(§5) 1) Cells were plated at 5000 cells/well and incubated overnight in the assay plate. 2) Cells were washed once in DPBS. 3) Stocks of the test compounds and reference compounds in concentrations ranging from […] were diluted 1:150 in Assay Buffer. Compounds were then diluted 1:10 in column 1 of a 96 deep well dilution plate and then carried across the row creating a 3.5 fold, 12 point dilution curve. 4) Assay Buffer (50 μl aliquot) with or without HSA was added to each well in the assay plate. 5) A 50 μl aliquot of compound or blank was transferred from the dilution plate to the assay plate containing the Assay Buffer with or without HSA. 6) The assay plate was incubated for 3 h in a 5% CO2 incubator at 37° C. 7) The cells were washed once with DPBS. 8) A 100 μl aliquot of DPBS was added to each well of the assay plate. 9) A 100 μl aliquot of steadylite plus reagent (light sensitive) was added to each well of the assay plate. 10) Each assay plate was covered with aluminum foil to protect it from light and shaken at 250 RPM for 30 min at room temperature. 11) Each assay plate was read in a microtiter plate reader.
(§6) The data from the microtiter plate reader was first regressed in an Excel in order to calculate the x-axis, log scale concentrations based on the individual test compound's stock concentration and the dilutions of the assay. […] The software performs a non-linear regression (log(agonist) vs response). A minimum of two replicates was measured for each sample. The reported values are averages of the replicates.

[2] = target: T1, human GIP receptor (Homo sapiens, UniProt P48546); test: In vitro functional potency, CRE luciferase reporter, whole BHK cells (hGIPR); assay type: cell-based; conditions: BHK CRE luc2P hGIPR cells
T1 construct: expressed in transfected cells; host or cells: BHK (parent line BHKTS13), clone BHK CRE luc2P hGIPR
T1 sequence (P48546 22-466): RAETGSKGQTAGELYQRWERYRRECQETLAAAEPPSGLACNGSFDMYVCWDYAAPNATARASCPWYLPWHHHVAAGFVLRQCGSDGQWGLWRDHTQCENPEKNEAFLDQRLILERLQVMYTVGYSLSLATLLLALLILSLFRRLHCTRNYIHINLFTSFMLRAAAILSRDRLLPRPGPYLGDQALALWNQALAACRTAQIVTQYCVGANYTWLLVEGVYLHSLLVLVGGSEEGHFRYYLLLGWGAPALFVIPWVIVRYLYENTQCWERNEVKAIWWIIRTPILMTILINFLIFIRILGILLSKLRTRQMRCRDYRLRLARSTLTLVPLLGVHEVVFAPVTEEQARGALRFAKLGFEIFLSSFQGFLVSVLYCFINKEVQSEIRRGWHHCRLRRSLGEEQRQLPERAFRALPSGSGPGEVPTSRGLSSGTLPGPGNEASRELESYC
Experimental: as §1, §2, §3, §4, §5, §6

[3] = 0% HSA, read-out: hGLP-1R, CRE Luc 0% HSA EC50
[4] = hGLP-1R, CRE Luc 1% HSA EC50, 1% HSA
[5] = 0% HSA, read-out: hGIPR, CRE Luc 0% HSA EC50
[6] = hGIPR, CRE Luc 1% HSA EC50, 1% HSA

human GLP-1 receptor, sequence (P43220 24-463): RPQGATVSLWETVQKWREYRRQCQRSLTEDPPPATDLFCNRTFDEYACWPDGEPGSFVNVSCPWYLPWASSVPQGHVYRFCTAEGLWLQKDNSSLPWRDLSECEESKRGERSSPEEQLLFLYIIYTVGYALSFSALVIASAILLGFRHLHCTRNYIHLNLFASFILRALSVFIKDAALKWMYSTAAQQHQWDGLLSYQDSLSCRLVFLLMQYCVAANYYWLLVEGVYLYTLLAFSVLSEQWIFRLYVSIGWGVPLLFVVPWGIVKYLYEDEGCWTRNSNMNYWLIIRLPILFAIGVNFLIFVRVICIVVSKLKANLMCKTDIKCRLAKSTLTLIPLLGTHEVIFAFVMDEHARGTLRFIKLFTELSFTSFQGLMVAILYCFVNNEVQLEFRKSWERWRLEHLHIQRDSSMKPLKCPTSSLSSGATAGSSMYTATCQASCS

| Compound | pEC50 [1, 3] | pEC50 [1, 4] | pEC50 [2, 5] | pEC50 [2, 6] |
| --- | --- | --- | --- | --- |
| CC[C@H](C)[C@H](NC(=O)[C@H](CO)NC(=O)[C@H](Cc1ccc(O)cc1)NC(=O)[C@H](CC(=O)O)NC(=O)[C@H](CO)NC(=O)[C@@H](NC(=O)[C@H](Cc1ccccc1)NC(=O)[C@@H](NC(=O)CNC(=O)[C@H](CCC(=O)O)NC(=O)C(C)(C)NC(=O)[C@@H](N)Cc1ccc(O)cc1)[C@@H](C)O)[C@@H](C)O)C(=O)N[C@@H](Cc1ccc(O)cc1)C(=O)N[C@@H](CC(C)C)C(=O)N[C@@H](CCC(=O)O)C(=O)N[C@@H](CCCCNC(=O)[C@@H](N)CCCCNC(=O)[C@@H](N)CCCCNC(=O)CC[C@H](NC(=O)CCCCCCCCCCCCCCCCCCC(=O)O)C(=O)O)C(=O)N[C@@H](CCC(N)=O)C(=O)N[C@@H](C)C(=O)N[C@@H](C)C(=O)N[C@@H](CCC(N)=O)C(=O)N[C@@H](CCC(=O)O)C(=O)N[C@@H](Cc1ccccc1)C(=O)N[C@H](C(=O)N[C@@H](CC(N)=O)C(=O)N[C@@H](Cc1c[nH]c2ccccc12)C(=O)N[C@@H](CC(C)C)C(=O)N[C@@H](CC(C)C)C(=O)N[C@@H](C)C(=O)NCC(=O)NCC(=O)N1CCC[C@H]1C(=O)N[C@@H](CO)C(=O)N[C@@H](CO)C(=O)NCC(=O)N[C@@H](C)C(=O)N1CCC[C@H]1C(=O)N1CCC[C@H]1C(=O)N1CCC[C@H]1C(=O)N[C@@H](CO)C(N)=O)C(C)C [Compound 1] (H-Y[Aib]EGTFTSDYSIYLEK([εLys-εLys-γGlu-C20 diacid])QAAQEFVNWLLAGGPSSGAPPPS-NH2) | 11.11 | 8.78 | 11.55 | 9.76 |
| CC[C@H](C)[C@H](NC(=O)[C@H](Cc1ccccc1)NC(=O)[C@H](CCC(=O)O)NC(=O)[C@H](CCCNC(=N)N)NC(=O)[C@H](C)NC(=O)[C@H](C)NC(=O)[C@H](CCC(N)=O)NC(=O)[C@H](CCCCNC(=O)[C@@H](N)CCCCNC(=O)[C@@H](N)CCCCNC(=O)CC[C@H](NC(=O)CCCCCCCCCCCCCCCCC(=O)O)C(=O)O)NC(=O)[C@H](CCC(=O)O)NC(=O)[C@H](CC(C)C)NC(=O)[C@H](CC(C)C)NC(=O)[C@@H](NC(=O)[C@H](CO)NC(=O)[C@H](Cc1ccc(O)cc1)NC(=O)[C@H](CC(=O)O)NC(=O)[C@H](CO)NC(=O)[C@@H](NC(=O)[C@H](Cc1ccccc1)NC(=O)[C@@H](NC(=O)CNC(=O)[C@H](CCC(=O)O)NC(=O)C(C)(C)NC(=O)[C@@H](N)Cc1ccc(O)cc1)[C@@H](C)O)[C@@H](C)O)[C@@H](C)CC)C(=O)N[C@@H](CCC(=O)O)C(=O)N[C@@H](Cc1c[nH]c2ccccc12)C(=O)N[C@@H](CC(C)C)C(=O)N[C@@H](CC(C)C)C(=O)N[C@@H](CCCNC(=N)N)C(=O)NCC(=O)NCC(=O)N1CCC[C@H]1C(=O)N[C@@H](CO)C(=O)N[C@@H](CO)C(=O)NCC(=O)N[C@@H](C)C(=O)N1CCC[C@H]1C(=O)N1CCC[C@H]1C(=O)N1CCC[C@H]1C(=O)N[C@@H](CO)C(=O)O [Compound 27] (H-Y[Aib]EGTFTSDYSILLEK([εLys-εLys-γGlu-C18 diacid])QAAREFIEWLLRGGPSSGAPPPS-OH) | 11.34 | 9.90 | 11.20 | 9.88 |
| CC[C@H](C)[C@H](NC(=O)[C@H](Cc1ccccc1)NC(=O)[C@H](CCC(=O)O)NC(=O)[C@H](CCCNC(=N)N)NC(=O)[C@H](C)NC(=O)[C@H](C)NC(=O)[C@H](CCC(N)=O)NC(=O)[C@H](CCCCNC(=O)[C@@H](N)CCCCNC(=O)[C@@H](N)CCCCNC(=O)CC[C@H](NC(=O)CCCCCCCCCCCCCCCCC(=O)O)C(=O)O)NC(=O)[C@H](CCC(=O)O)NC(=O)[C@H](CC(C)C)NC(=O)[C@@H](NC(=O)[C@@H](NC(=O)[C@H](CO)NC(=O)[C@H](Cc1ccc(O)cc1)NC(=O)[C@H](CC(=O)O)NC(=O)[C@H](CO)NC(=O)[C@@H](NC(=O)[C@H](Cc1ccccc1)NC(=O)[C@@H](NC(=O)CNC(=O)[C@H](CCC(=O)O)NC(=O)C(C)(C)NC(=O)[C@@H](N)Cc1ccc(O)cc1)[C@@H](C)O)[C@@H](C)O)[C@@H](C)CC)[C@@H](C)CC)C(=O)N[C@@H](CC(N)=O)C(=O)N[C@@H](Cc1c[nH]c2ccccc12)C(=O)N[C@@H](CC(C)C)C(=O)N[C@@H](CC(C)C)C(=O)N[C@@H](C)C(=O)NCC(=O)NCC(=O)N1CCC[C@H]1C(=O)N[C@@H](CO)C(=O)N[C@@H](CO)C(=O)NCC(=O)N[C@@H](C)C(=O)N1CCC[C@H]1C(=O)N1CCC[C@H]1C(=O)N1CCC[C@H]1C(=O)N[C@@H](CO)C(=O)O [Compound 34] (H-Y[Aib]EGTFTSDYSIILEK([εLys-εLys-γGlu-C18 diacid])QAAREFINWLLAGGPSSGAPPPS-OH) | 11.22 | 9.73 | 11.08 | 9.67 |
| CC[C@H](C)[C@H](NC(=O)[C@H](Cc1ccccc1)NC(=O)[C@H](CCC(=O)O)NC(=O)[C@H](CCCNC(=N)N)NC(=O)[C@H](C)NC(=O)[C@H](C)NC(=O)[C@H](CCC(N)=O)NC(=O)[C@H](CCCCNC(=O)[C@@H](N)CCCCNC(=O)[C@@H](N)CCCCNC(=O)CC[C@H](NC(=O)CCCCCCCCCCCCCCCCC(=O)O)C(=O)O)NC(=O)[C@H](CCC(=O)O)NC(=O)[C@H](CC(C)C)NC(=O)[C@H](CC(C)C)NC(=O)[C@@H](NC(=O)[C@H](CO)NC(=O)[C@H](Cc1ccc(O)cc1)NC(=O)[C@H](CC(=O)O)NC(=O)[C@H](CO)NC(=O)[C@@H](NC(=O)[C@H](Cc1ccccc1)NC(=O)[C@@H](NC(=O)CNC(=O)[C@H](CCC(=O)O)NC(=O)C(C)(C)NC(=O)[C@@H](N)Cc1ccc(O)cc1)[C@@H](C)O)[C@@H](C)O)[C@@H](C)CC)C(=O)N[C@@H](CC(N)=O)C(=O)N[C@@H](Cc1c[nH]c2ccccc12)C(=O)N[C@@H](CC(C)C)C(=O)N[C@@H](CC(C)C)C(=O)N[C@@H](C)C(=O)NCC(=O)NCC(=O)N1CCC[C@H]1C(=O)O [Compound 19] (H-Y[Aib]EGTFTSDYSILLEK([εLys-εLys-γGlu-C18 diacid])QAAREFINWLLAGGP-OH) | 11.07 | 9.44 | 11.19 | 9.56 |
